Source: patent US12479843B2, “Spiro ring-containing quinazoline compounds” (WIGEN BIOMEDICINE TECHNOLOGY (SHANGHAI) CO., LTD., priority 2019, dated 2025)

How the values were obtained:
pERK level in H358 cells = test: pERK and ERK protein content assay in H358 cells (ELISA); type: cell-based; settings: Homo sapiens, NCI-H358, compound 1 μM, 24 h, pERK/ERK ratio compared with DMSO group, read-out: Inhibition rate (%) of pERK level
Method in brief: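 H358 cells grown one day, then treated 24 h with compound at 1 μM. pERK and ERK in lysates measured by ELISA; pERK/ERK ratio expressed as percent inhibition versus DMSO.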

H358 cells = test: Antiproliferative activity against H358 cells (Cell Titer Glow, ultra-low attachment plate); type: cell-based; settings: Homo sapiens, NCI-H358, 72 h, 96-well ultra-low attachment plate, three days after addition of compound, Cell Titer Glow
Experimental: 2500 H358 cells were seeded in a 96-well ultra-low attachment plate (corning, 7007). After one day of growth, a serially diluted compound (a maximum concentration of 5 μM, 5-fold dilution, a total of five doses) was added. Three days after the addition of the compound, Cell Titer Glow (Promega, G9681) was added to evaluate pellet growth, and the IC50 value was calculated.

SMILES	inhibition at 1 µM (pERK level in H358 cells) [%]	IC50 (H358 cells) [nM]
C=CC(=O)N1CC2(CCN(c3nc(N(C)CCN4CC(C#N)C4)nc4c(OCC(F)(F)F)c(-c5c(C)ccc6[nH]ncc56)c(C5CC5)cc34)CC2)C1 [Compound 231]	50 to 90	300 to 1000
C=CC(=O)N1CC2(CCN(c3nc(N(C)CCN4CCCC4)nc4c(OCC(F)(F)F)c(-c5c(C)ccc6[nH]ncc56)c(C5CC5)cc34)CC2)C1 [Compound 232]	> 90	< 300
C=CC(=O)N1CC2(CCN(c3nc(N(C)CCN4CC[C@H](C)C4)nc4c(OCC(F)(F)F)c(-c5c(C)ccc6[nH]ncc56)c(C5CC5)cc34)CC2)C1 [Compound 233]	> 90	< 300
C=CC(=O)N1CC2(CCN(c3nc(N(C)CCN4CC[C@H](O)C4)nc4c(OCC(F)(F)F)c(-c5c(C)ccc6[nH]ncc56)c(C5CC5)cc34)CC2)C1 [Compound 234]	> 90	< 300
C=CC(=O)N1CC2(CCN(c3nc(N(C)CCN4CC[C@H](OC)C4)nc4c(OCC(F)(F)F)c(-c5c(C)ccc6[nH]ncc56)c(C5CC5)cc34)CC2)C1 [Compound 235]	> 90	< 300
C=CC(=O)N1CC2(CCN(c3nc(N(C)CCN4CC[C@H](F)C4)nc4c(OCC(F)(F)F)c(-c5c(C)ccc6[nH]ncc56)c(C5CC5)cc34)CC2)C1 [Compound 236]	> 90	< 300
C=CC(=O)N1CC2(CCN(c3nc(N4CC(N5CC(C)C5)C4)nc4c(OCC(F)(F)F)c(-c5c(C)ccc6[nH]ncc56)c(C5CC5)cc34)CC2)C1 [Compound 237]	> 90	< 300
C=CC(=O)N1CC2(CCN(c3nc(N4CC(N5CC(C#N)C5)C4)nc4c(OCC(F)(F)F)c(-c5c(C)ccc6[nH]ncc56)c(C5CC5)cc34)CC2)C1 [Compound 238]	> 90	300 to 1000
C=CC(=O)N1CC2(CCN(c3nc(N4CC(N5CC(OCC(F)(F)F)C5)C4)nc4c(OCC(F)(F)F)c(-c5c(C)ccc6[nH]ncc56)c(C5CC5)cc34)CC2)C1 [Compound 239]	50 to 90	300 to 1000
C=CC(=O)N1CC2(CCN(c3nc(N4CC(N5CC(C)(O)C5)C4)nc4c(OCC(F)(F)F)c(-c5c(C)ccc6[nH]ncc56)c(C5CC5)cc34)CC2)C1 [Compound 240]	> 90	< 300
C=CC(=O)N1CC2(CCN(c3nc(N4CC(N5CC(S(C)(=O)=O)C5)C4)nc4c(OCC(F)(F)F)c(-c5c(C)ccc6[nH]ncc56)c(C5CC5)cc34)CC2)C1 [Compound 241]	50 to 90	300 to 1000
C=CC(=O)N1CC2(CCN(c3nc(N4CC(N5CC(CC#N)C5)C4)nc4c(OCC(F)(F)F)c(-c5c(C)ccc6[nH]ncc56)c(C5CC5)cc34)CC2)C1 [Compound 242]	> 90	< 300
C=CC(=O)N1CC2(CCN(c3nc(N4CC(N5CC(CO)C5)C4)nc4c(OCC(F)(F)F)c(-c5c(C)ccc6[nH]ncc56)c(C5CC5)cc34)CC2)C1 [Compound 243]	> 90	< 300
C=CC(=O)N1CC2(CCN(c3nc(N4CC(N5CC(N(C)C)C5)C4)nc4c(OCC(F)(F)F)c(-c5c(C)ccc6[nH]ncc56)c(C5CC5)cc34)CC2)C1 [Compound 244]	> 90	< 300
C=CC(=O)N1CC2(CCN(c3nc(N4CC(N5CCC[C@H]5C)C4)nc4c(OCC(F)(F)F)c(-c5c(C)ccc6[nH]ncc56)c(C5CC5)cc34)CC2)C1 [Compound 245]	> 90	< 300
C=CC(=O)N1CC2(CCN(c3nc(N4CC(N5CCC[C@@H]5C)C4)nc4c(OCC(F)(F)F)c(-c5c(C)ccc6[nH]ncc56)c(C5CC5)cc34)CC2)C1 [Compound 246]	> 90	< 300
C=CC(=O)N1CC2(CCN(c3nc(N4CC(N5CC[C@H](C)C5)C4)nc4c(OCC(F)(F)F)c(-c5c(C)ccc6[nH]ncc56)c(C5CC5)cc34)CC2)C1 [Compound 247]	> 90	< 300
C=CC(=O)N1CC2(CCN(c3nc(N4CC(N5CC[C@@H](C)C5)C4)nc4c(OCC(F)(F)F)c(-c5c(C)ccc6[nH]ncc56)c(C5CC5)cc34)CC2)C1 [Compound 248]	> 90	< 300
C=CC(=O)N1CC2(CCN(c3nc(N4CC(N5CCC[C@@H]5C#N)C4)nc4c(OCC(F)(F)F)c(-c5c(C)ccc6[nH]ncc56)c(C5CC5)cc34)CC2)C1 [Compound 249]	50 to 90	300 to 1000
C=CC(=O)N1CC2(CCN(c3nc(N4CC(N5CCC[C@H]5C#N)C4)nc4c(OCC(F)(F)F)c(-c5c(C)ccc6[nH]ncc56)c(C5CC5)cc34)CC2)C1 [Compound 250]	50 to 90	300 to 1000
